Reference: patent US3944498A, “Germicidal detergent containing a thienyliodonium salt” (The Dow Chemical Company, priority 1973, dated 1976)

Assays:
[1] = test system: organisms of mold and mildew; assay: Protection of latex paint on wood panels from mold and mildew, tropical chamber; conditions: 0.3 percent by weight in latex paint, two months, 95 percent RH, 82°F
Experimental: 4-Chlorophenyl-2-thienyliodonium chloride is employed in a paint composition to protect the paint from attack and subsequent degradation by the organisms of mold and mildew. In such operations, the salt compound is dispersed and incorporated in the latex paint in the amount of 0.3 percent by weight of the ultimate paint composition.
The paint employed in these operations is prepared by intimately blending a pigment dispersion with a letdown including a synthetic latex comprising an interpolymer of ethyl acrylate, methyl methacrylate, acrylic acid and methacrylic acid. The paint has the following composition.
Wood panels are then painted with the modified compositions as well as with the unmodified paint. The panels are dried and thereafter exposed two months in a tropical chamber at a relative humidity of 95 percent and a temperature of 82°F. (28°C.). Following this period, the wood panels are examined to ascertain what control of […] is obtained.

A. aerogenes = assay: Agar plate kill test with Ivory soap, A. aerogenes; assay type: cell-based; conditions: Klebsiella aerogenes, 48 h, read-out: Percent Kill of A. aerogenes
Experimental: (§1) Phenyl-2-thienyliodonium chloride, 2,2'-bisthienyliodonium chloride, and, for comparative purposes, diphenyliodonium chloride are individually dispersed in Ivory soap to provide concentrates containing 1 part by weight of iodonium salt to 50 parts by weight of soap. The soap concentrates are serially dispersed and serially diluted with liquid nutrient agar at 42°C. to prepare culture media containing various concentrations of one of the iodonium salts. The culture media are uniformly inoculated with S. aureus and plated in petri dishes. The inoculation is carried out from broth cultures of the named organism containing about 5×10^8 organisms per milliliter in the proportion of one-tenth milliliter of bacterial culture per 20 milliliters of cultur medium containing each test compound. In a check operation, nutrient agar containing the same amount of Ivory soap is similarly inoculated with the same organism. After two days' incubation at 37°C., the plates are examined for microbial growth.
The procedure described above is repeated with varying concentrations of 4-chlorophenyl-2-thienyliodonium chloride, 3,4-dichlorophenyl-2-thienyliodonium chloride, and for comparative purposes bis(4-chlorophenyl)iodonium chloride, phenyl-4-chlorophenyliodonium chloride and bis(2,4-dichlorophenyl)iodoniumchloride in a series of tests wherein the culture media are inoculated individually with the organism A. aerogenes.
The procedure described above is once again repeated with each of 2,2'-bisthienyliodonium chloride, phenyl-2-thienyliodonium chloride, 4-bromophenyl-2-thienyliodonium chloride, bis(4-bromophenyl)iodonium chloride and bis(4-bromophenyl)iodonium bromide in a series of tests wherein the culture media are inoculated individually with the organism A. aerogenes.

S. typhosa = assay: Agar plate kill test with Ivory soap, S. typhosa; assay type: cell-based; conditions: 48 h; 1 p.p.m., Ivory soap; read-out: Percent Kill of S. Typhosa
Experimental: as §1
The procedure described above is again repeated in a series of tests wherein the culture media are inoculated individually with the organism S. typhosa and wherein the culture media contain varying concentrations of one of the iodonium salts, as set forth in following Table II.

[2] = Oral median lethal dose in Swiss mice (Cox strain); assay type: in vivo; conditions: mouse, in vivo, po; for LD50 at 168 h: 7 days; for LD50 at 336 h: 14 days
Experimental: (§2) Five groups of mice, each consisting of 15 males and 15 females, were given ClPhThICl in an aqueous 0.5 percent METHOCEL hydroxypropyl methylcellulose (4000 cps.) suspension at a concentration of 300 mg/ml. The compound was administered as a single oral dose at 0.2 logarithmic dose intervals (708, 1120, 1780, 2820, 4450 mg/kg) and the following mortality experience was noted:
(§3) The percent of total mortalities occurring was 16.0, 66.6, 81.5, and 91.3 at 6, 24, 48 and 72 hours post-treatment, respectively. The last death occurred in a female (1120 mg/kg group) on day 14 of the study.

Swiss mice (Cox strain) = assay: Oral median lethal dose in Swiss mice (Cox strain); assay type: in vivo
Experimental: as §2, §3

[3] = male mice, 95% confidence limits 1353-2288 mg/kg

Compound: Clc1ccc([I+]c2cccs2)cc1.[Cl-] [4-Chlorophenyl-2-thienyliodonium chloride]
- control of growth of mold and mildew on painted panels [1]: complete control of the growth of the organisms of mold and mildew
- killing at 1 ppm (A. aerogenes): 100%
- killing at 1 ppm (S. typhosa): 100%
- LD50 at 24 h ([2]; female mice, 95% confidence limits 2300-3591 mg/kg): 2700 mg/kg
- LD50 at 24 h ([2]; male mice, 95% confidence limits 1916-2760 mg/kg): 2300 mg/kg
- LD50 at 168 h ([2]; female mice, 95% confidence limits 1172-2455 mg/kg): 1700 mg/kg
- LD50 at 168 h [2, 3]: 1760 mg/kg
- LD50 at 336 h ([2]; female mice, 95% confidence limits 1264-1975 mg/kg): 1580 mg/kg
- LD50 at 336 h [2, 3]: 1760 mg/kg
- No. Dead (Swiss mice (Cox strain); 708 mg/kg oral, 7 Days, females): 1/15
- No. Dead (Swiss mice (Cox strain); 708 mg/kg oral, 7 Days, males): 0/15
- No. Dead (Swiss mice (Cox strain); 708 mg/kg oral, 14 Days, females): 2/15
- No. Dead (Swiss mice (Cox strain); 708 mg/kg oral, 14 Days, males): 1/15
- No. Dead (Swiss mice (Cox strain); 708 mg/kg oral, 24 Hours, females): 0/15
- No. Dead (Swiss mice (Cox strain); 708 mg/kg oral, 24 Hours, males): 0/15
- No. Dead (Swiss mice (Cox strain); 1120 mg/kg oral, 7 Days, females): 1/15
- No. Dead (Swiss mice (Cox strain); 1120 mg/kg oral, 7 Days, males): 1/15
- No. Dead (Swiss mice (Cox strain); 1120 mg/kg oral, 14 Days, females): 2/15
- No. Dead (Swiss mice (Cox strain); 1120 mg/kg oral, 14 Days, males): 1/15
- No. Dead (Swiss mice (Cox strain); 1120 mg/kg oral, 24 Hours, females): 0/15
- No. Dead (Swiss mice (Cox strain); 1120 mg/kg oral, 24 Hours, males): 0/15
- No. Dead (Swiss mice (Cox strain); 1780 mg/kg oral, 7 Days, females): 8/15
- No. Dead (Swiss mice (Cox strain); 1780 mg/kg oral, 7 Days, males): 8/15
- No. Dead (Swiss mice (Cox strain); 1780 mg/kg oral, 14 Days, females): 8/15
- No. Dead (Swiss mice (Cox strain); 1780 mg/kg oral, 14 Days, males): 9/15
- No. Dead (Swiss mice (Cox strain); 1780 mg/kg oral, 24 Hours, females): 4/15
- No. Dead (Swiss mice (Cox strain); 1780 mg/kg oral, 24 Hours, males): 3/15
- No. Dead (Swiss mice (Cox strain); 2820 mg/kg oral, 7 Days, females): 14/15
- No. Dead (Swiss mice (Cox strain); 2820 mg/kg oral, 7 Days, males): 14/15
- No. Dead (Swiss mice (Cox strain); 2820 mg/kg oral, 14 Days, females): 14/15
- No. Dead (Swiss mice (Cox strain); 2820 mg/kg oral, 14 Days, males): 14/15
- No. Dead (Swiss mice (Cox strain); 2820 mg/kg oral, 24 Hours, females): 8/15
- No. Dead (Swiss mice (Cox strain); 2820 mg/kg oral, 24 Hours, males): 11/15
- No. Dead (Swiss mice (Cox strain); 4450 mg/kg oral, 7 Days, females): 15/15
- No. Dead (Swiss mice (Cox strain); 4450 mg/kg oral, 7 Days, males): 15/15
- No. Dead (Swiss mice (Cox strain); 4450 mg/kg oral, 14 Days, females): 15/15
- No. Dead (Swiss mice (Cox strain); 4450 mg/kg oral, 14 Days, males): 15/15
- No. Dead (Swiss mice (Cox strain); 4450 mg/kg oral, 24 Hours, females): 13/15
- No. Dead (Swiss mice (Cox strain); 4450 mg/kg oral, 24 Hours, males): 15/15
- percent of total mortalities occurring (Swiss mice (Cox strain); 6 hours post-treatment): 16.0%
- percent of total mortalities occurring (Swiss mice (Cox strain); 24 hours post-treatment): 66.6%
- percent of total mortalities occurring (Swiss mice (Cox strain); 48 hours post-treatment): 81.5%
- percent of total mortalities occurring (Swiss mice (Cox strain); 72 hours post-treatment): 91.3%
- time of last death (Swiss mice (Cox strain); female, 1120 mg/kg group): 14 days
